Measured values as given in PMC11504387, “Synthesis and Biological Activity Assessment of 2-Styrylbenzothiazoles as Potential Multifunctional Therapeutic Agents” (Antioxidants, 2024).

Experiments:
[1] = test system: primary human monocytes; experiment: Lipid mediator (LM) formation in primary human monocytes; assay type: cell-based; conditions: 10 µM; A23187 2.5 µM, 30 min
Excerpt: Monocytes and polymorphonuclear leukocytes (PMNL) were freshly isolated from human blood. Human blood and leukocyte concentrates were provided by the Institute for Transfusion Medicine of the University Hospital Jena (Thuringia, Germany). The protocols for experiments with human blood and blood cells were approved by the ethical commission of the Friedrich Schiller University of Jena. Following blood density centrifugation and separation of cell populations, peripheral blood mononuclear cells (PBMC) were left to adhere for 1 h to cell culture flasks (monocyte-enriched PBMC). Non-adherent cells were washed off from the adherent monocytes, before pre-incubating monocytes (5 × 10^6 cells/mL) with the test compounds for 10 min at 37 °C. LM formation was elicited with A23187 (2.5 µM) and CaCl2 (1 mM) over 30 min. The reaction was stopped with 1 mL of ice-cold methanol containing 10 µL of deuterium-labelled internal LM standards (200 nM d8-5S-HETE, d4-LTB4, d5-LXA4, d5-RvD2, d4-PGE2 and 10 µM d8-AA). LMs were extracted using Sep-Pak C18 35 cc Vac Cartridges (Waters, Milford, MA, USA) and analysed by UPLC-MS/MS as described by Pein et al..
The ability to modulate LM formation was screened in primary human monocytes expressing the enzymes required for PGE2, LTB4, and 12-HETE production (Figure 2A). Cells were pre-treated with the test compounds BZTst1–6 (10 µM) or the reference COX inhibitor diclofenac (1 µM) for 10 min prior to stimulation with the calcium ionophore A23187 (2.5 µM) for 30 min.

| melting point [°C] | SMILES | 12-HETE formation [1] |
| --- | --- | --- |
| – | C(=C\c1nc2ccccc2s1)/c1ccccc1 [BZTst1, (E)-2-styrylbenzo[d]thiazole] | weak but significant inhibition |
| 144 to 148 | COc1ccc(/C=C/c2nc3ccccc3s2)cc1 [BZTst3, (E)-2-(4-methoxystyryl)benzo[d]thiazole] | – |
| – | Oc1ccc(/C=C/c2nc3ccccc3s2)cc1O [BZTst4, (E)-4-(2-(benzo[d]thiazol-2-yl)vinyl)benzene-1,2-diol] | highly significant inhibition |
